The source of these data is US20230099344A1, “COMPOUNDS AND METHODS FOR THE TARGETED DEGRADATION OF IRAK-4” (Arvinas Operations, Inc., priority 2021, published 2023).

What all share (format): cell-based
Experiment [1] concerns IL6. The experiment can be described thus: LPS stimulated IL6 inhibition assay in PBMC. As to conditions: human PBMCs, LPS stimulation, compound overnight, IL6 by MSD after 24 hrs; for Dmax: read-out: LPS Stim IL6 inhibition Dmax; for IC50: read-out: LPS stim IL6 inhibition IC50. Put shortly:
(§1)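 Primary human PBMCs plated at 2.0×10^6 cells/mL are incubated with compound overnight. Stimulation follows using the donor's EC50 concentration of agonist. MSD detects secreted IL6/IL8 at 24 hrs.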

Experiment [2] deals with IL6. The experiment can be described thus: R848 stimulated IL6 inhibition assay in PBMC. As to conditions: human PBMCs, R848 stimulation, compound overnight, IL6 by MSD after 24 hrs; for Dmax: Homo sapiens, 24 h, read-out: R848 stim IL6 inhibition Dmax; for IC50: read-out: R848 stim IL6 inhibition IC50. Put shortly:
as §1

The target in a further experiment is T1, IRAK-4 (Homo sapiens, UniProt Q9NWZ3).
T1 sequence (Q9NWZ3 1-460): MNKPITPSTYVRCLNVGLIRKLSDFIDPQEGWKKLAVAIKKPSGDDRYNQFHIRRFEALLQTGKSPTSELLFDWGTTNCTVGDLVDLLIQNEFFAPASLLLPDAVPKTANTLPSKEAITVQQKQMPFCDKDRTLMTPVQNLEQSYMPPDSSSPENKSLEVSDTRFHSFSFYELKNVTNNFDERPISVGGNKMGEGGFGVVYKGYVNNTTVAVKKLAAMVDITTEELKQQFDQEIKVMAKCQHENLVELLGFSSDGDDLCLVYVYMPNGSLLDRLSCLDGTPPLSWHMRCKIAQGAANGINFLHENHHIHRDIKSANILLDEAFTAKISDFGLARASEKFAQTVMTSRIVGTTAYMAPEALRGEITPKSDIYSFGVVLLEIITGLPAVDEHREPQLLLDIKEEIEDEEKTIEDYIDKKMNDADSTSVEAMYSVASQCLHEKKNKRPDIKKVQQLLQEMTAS
In words: IRAK-4 ELISA, PBMC degradation. Also noted: endogenous in cells; host or cells: PBMC. The note with it: treated overnight. Put shortly: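 Overnight compound treatment, started on the day of plating, of OCI-Ly10 (1×10^6/ml) and PBMC (2×10^6/ml) cultures. Lysates are collected and IRAK-4 content is read by sandwich ELISA.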

On to `CN(C1CN(c2ccc3c(c2)CN(C2CCC(=O)NC2=O)C3=O)C1)[C@H]1CC[C@H](N2Cc3cc(NC(=O)c4cnn5cccnc45)c(N4CCC(N5CCC5)CC4)cc3C2=O)CC1` (stereo partly drawn) [Example 370], for which, in the experiment on IL6 [1] (Homo sapiens, PBMC, 24 h), the Dmax is at least 90% and the IC50 is below 10 nM. In addition, in the experiment with IL6 [2] (PBMC), the Dmax is at least 90% and the IC50 was below 10 nM. Further, on IRAK-4, the DC50 is 1 to 5 nM, the Dmax was at least 90% and the “PBMC DC90” value was “A (A represents a DC90 value <10.0 nM)”.
With `CN(C1CCN(c2ccc3c(c2)C(=O)N(C2CCC(=O)NC2=O)C3=O)CC1)[C@H]1CC[C@H](N2Cc3cc(NC(=O)c4cnn5cccnc45)c(N4CCN(CC(F)F)CC4)cc3C2=O)CC1` (stereo partly drawn) [Example 371], in the experiment on IL6 [1] (Homo sapiens, PBMC, 24 h), the Dmax was 70 to 80% and the IC50 fell in the range of 10 to 50 nM. Besides, in the experiment on IL6 [2] (PBMC), the Dmax is at least 90% and the IC50 lay within 10 to 50 nM. Moreover, on IRAK-4, the half-maximal degradation concentration (DC50) is below 1 nM; the Dmax is at least 90%; the “PBMC DC90” value was “B (B represents a DC90 value ≥10.0 nM and <25.0 nM)”.
For the molecule `CN([C@H]1CC[C@H](n2cc3cc(NC(=O)c4cnn5cccnc45)c(OCC4CC4)cc3n2)CC1)[C@H]1C[C@H](Oc2ccc3c(c2)C(=O)N(C2CCC(=O)NC2=O)C3=O)C1` (stereo partly drawn) [Example 372], in the experiment on IL6 [1] (Homo sapiens, PBMC, 24 h), the Dmax fell in the range of 80 to 90% and the concentration for half-maximal inhibition (IC50) was below 10 nM. In addition, in the experiment with IL6 [2] (PBMC), the Dmax is at least 90% and the IC50 lay in the range of 10 to 50 nM. In addition, at IRAK-4, the DC50 was below 1 nM, the Dmax is at least 90% and the “PBMC DC90” value is recorded as “A (A represents a DC90 value <10.0 nM)”.
`CCN([C@H]1CC[C@H](n2cc3cc(NC(=O)c4cnn5cccnc45)c(OCC4CC4)cc3n2)CC1)[C@H]1C[C@H](Oc2ccc3c(c2)C(=O)N(C2CCC(=O)NC2=O)C3=O)C1` (stereo partly drawn) [Example 373]: in the experiment on IL6 [1] (Homo sapiens, PBMC, 24 h), the Dmax lay in the range of 70 to 80% and the half-inhibitory concentration (IC50) lay in the range of 10 to 50 nM. In the experiment with IL6 [2] (PBMC), the Dmax lay in the range of 80 to 90% and the IC50 fell in the range of 10 to 50 nM. On IRAK-4, the DC50 was below 1 nM, the Dmax was at least 90% and the “PBMC DC90” value is given as “A (A represents a DC90 value <10.0 nM)”.
`O=C1CCC(N2C(=O)c3ccc(O[C@H]4C[C@H](N[C@H]5CC[C@H](n6cc7cc(NC(=O)c8cnn9cccnc89)c(OCC8CC8)cc7n6)CC5)C4)cc3C2=O)C(=O)N1` (stereo partly drawn) [Example 374]: in the experiment on IL6 [1] (Homo sapiens, PBMC, 24 h), the Dmax is 70 to 80% and the half-inhibitory concentration (IC50) lay within 10 to 50 nM. In the experiment on IL6 [2] (PBMC), the Dmax was at least 90% and the half-inhibitory concentration (IC50) lay in the range of 10 to 50 nM. Also, on IRAK-4, the DC50 was below 1 nM; the Dmax is at least 90%; the “PBMC DC90” value is “B (B represents a DC90 value ≥10.0 nM and <25.0 nM)”.
Regarding `O=C1CCC(N2C(=O)c3ccc(N4CCN(C[C@H]5CC[C@H](n6cc7cc(NC(=O)c8cnn9cccnc89)c(OCC8CC8)cc7n6)CC5)CC4)cc3C2=O)C(=O)N1` (stereo partly drawn) [Example 375], in the experiment on IL6 [1] (Homo sapiens, PBMC, 24 h), the Dmax is 70 to 80% and the IC50 is below 10 nM. For the same molecule, in the experiment with IL6 [2] (PBMC), the Dmax is at least 90% and the IC50 was 10 to 50 nM. In addition, at IRAK-4, the DC50 is 1 to 5 nM, the Dmax is at least 90% and the “PBMC DC90” value is listed as “A (A represents a DC90 value <10.0 nM)”.
In the case of `O=C1CCC(NC(=O)c2ccc(O[C@H]3C[C@H](N[C@H]4CC[C@H](n5cc6cc(NC(=O)c7cnn8cccnc78)c(OCC7CC7)cc6n5)CC4)C3)cc2F)C(=O)N1` (stereo partly drawn) [Example 376], in the experiment with IL6 [1] (Homo sapiens, PBMC, 24 h), the Dmax lay within 70 to 80% and the IC50 lay within 10 to 50 nM. For the same molecule, in the experiment with IL6 [2] (PBMC), the Dmax is at least 90% and the half-maximal inhibitory concentration (IC50) lay within 10 to 50 nM. At IRAK-4, the 50% degradation concentration (DC50) was in the range of 1 to 5 nM, the Dmax was at least 90% and the “PBMC DC90” value is recorded as “A (A represents a DC90 value <10.0 nM)”.
With `Cn1c(=O)n(C2CCC(=O)NC2=O)c2cccc(N3CC(CN4CCC(n5cc6cc(NC(=O)c7cnn8cccnc78)c(OCC7CC7)cc6n5)CC4)C3)c21` (stereo not drawn) [Example 378, N-(6-(cyclopropylmethoxy)-2-(1-((1-(1-(2,6-dioxopiperidin-3-yl)-3-methyl-2-oxo-2,3-dihydro-1H-benzo[d]imidazol-4-yl)azetidin-3-yl)methyl)piperidin-4-yl)-2H-indazol-5-yl)pyrazolo[1,5-a]pyrimidine-3-carboxamide], in the experiment on IL6 [1] (Homo sapiens, PBMC, 24 h), the Dmax was in the range of 80 to 90% and the half-inhibitory concentration (IC50) was below 10 nM. In addition, in the experiment with IL6 [2] (PBMC), the Dmax was at least 90% and the IC50 is below 10 nM. Moreover, on IRAK-4, the DC50 was below 1 nM, the Dmax was at least 90% and the “PBMC DC90” value is “A (A represents a DC90 value <10.0 nM)”.
Regarding `CC(C)Oc1cc2c(cc1NC(=O)c1cnn3cccnc13)CN(C1CCN(CC3CN(c4cccc5c4n(C)c(=O)n5C4CCC(=O)NC4=O)C3)CC1)C2=O` (stereo not drawn) [Example 381], in the experiment on IL6 [1] (Homo sapiens, PBMC, 24 h), the Dmax lay within 70 to 80% and the IC50 was below 10 nM. In the experiment with IL6 [2] (PBMC), the Dmax is at least 90% and the IC50 is 10 to 50 nM. For the same molecule, at IRAK-4, the half-maximal degradation concentration (DC50) is below 1 nM, the Dmax was at least 90% and the “PBMC DC90” value is listed as “A (A represents a DC90 value <10.0 nM)”.
For the molecule `CC(C)Oc1cc2c(cc1NC(=O)c1cnn3cccnc13)CN(C[C@@H](F)C1CCN(CC3CN(c4cccc5c4n(C)c(=O)n5C4CCC(=O)NC4=O)C3)CC1)C2=O` (stereo partly drawn) [Example 382], in the experiment on IL6 [1] (Homo sapiens, PBMC, 24 h), the Dmax was 70 to 80% and the half-inhibitory concentration (IC50) was in the range of 10 to 50 nM. In the experiment with IL6 [2] (PBMC), the Dmax is at least 90% and the IC50 was 10 to 50 nM. Further, at IRAK-4, the DC50 was below 1 nM, the Dmax was at least 90% and the “PBMC DC90” value is “A (A represents a DC90 value <10.0 nM)”.
In the case of `CC(C)Oc1cc2c(cc1NC(=O)c1cnn3cccnc13)CN([C@H]1CC[C@H](N(C)C3CN(c4cccc5c4n(C)c(=O)n5C4CCC(=O)NC4=O)C3)CC1)C2=O` (stereo partly drawn) [Example 384, N-(2-((1r,4r)-4-((1-(1-(2,6-dioxopiperidin-3-yl)-3-methyl-2-oxo-2,3-dihydro-1H-benzo[d]imidazol-4-yl)azetidin-3-yl)(methyl)amino)cyclohexyl)-6-isopropoxy-1-oxoisoindolin-5-yl)pyrazolo[1,5-a]pyrimidine-3-carboxamide], in the experiment with IL6 [1], the “LPS Stim IL6 inhibition Dmax” value was “C (C represents a Ymax value ≥70 and <80)”; the IC50 is at least 100 nM. For the same molecule, in the experiment on IL6 [2], the “R848 stim IL6 inhibition Dmax” value is on record as “A (A represents a Ymax value ≥90)” and the IC50 is below 10 nM. In addition, on IRAK-4, the DC50 was below 1 nM, the “PBMC DC90” value is reported as “A (A represents a DC90 value <10.0 nM)” and the “PBMC Dmax” value is recorded as “A (A represents a Dmax value ≥90)”.
With `C=Nc1c(C(=O)Nc2cc3cn(C4CCN(CC5(F)CN(c6cccc7c6n(C)c(=O)n7C6CCC(=O)NC6=O)C5)CC4)nc3cc2C2CC2)cnn1/C=C\C` (stereo not drawn) [Example 389], in the experiment with IL6 [1] (Homo sapiens, PBMC, 24 h), the Dmax was at least 90% and the half-inhibitory concentration (IC50) is at least 100 nM. Moreover, in the experiment on IL6 [2] (PBMC), the Dmax is at least 90% and the IC50 lay within 10 to 50 nM. Moreover, on IRAK-4, the DC50 was below 1 nM, the Dmax lay in the range of 80 to 90% and the “PBMC DC90” value is listed as “A (A represents a DC90 value <10.0 nM)”.
For the molecule `CC(C)Oc1nc2c(cc1NC(=O)c1cnn3cccnc13)CN(C1CCN(CC3CN(c4ccc(C(=O)NC5CCC(=O)NC5=O)c(F)c4)C3)CC1)C2=O` (stereo not drawn) [Example 402], in the experiment with IL6 [1] (Homo sapiens, PBMC, 24 h), the Dmax is below 70% and the 50% inhibitory concentration (IC50) was in the range of 10 to 50 nM. In the experiment on IL6 [2] (PBMC), the Dmax was in the range of 80 to 90% and the IC50 is 10 to 50 nM. In addition, at IRAK-4, the 50% degradation concentration (DC50) is below 1 nM, the Dmax is at least 90% and the “PBMC DC90” value is given as “A (A represents a DC90 value <10.0 nM)”.
Turning to `O=C1CCC(N2C(=O)c3ccc(N4CCCC5(C4)CN([C@H]4CC[C@H](n6cc7cc(NC(=O)c8cnn9cccnc89)c(OCC8CC8)cc7n6)CC4)C5)cc3C2=O)C(=O)N1` (stereo partly drawn) [Example 418], in the experiment with IL6 [1] (Homo sapiens, PBMC, 24 h), the Dmax lay in the range of 80 to 90% and the concentration for half-maximal inhibition (IC50) fell in the range of 10 to 50 nM. Also, in the experiment with IL6 [2] (PBMC), the Dmax was at least 90% and the IC50 is below 10 nM. Also, at IRAK-4, the DC50 was below 1 nM, the Dmax was 80 to 90% and the “PBMC DC90” value is “A (A represents a DC90 value <10.0 nM)”.
For the molecule `O=C1CCC(N2C(=O)c3cccc(N4CC5(CCCN(C6CCC(n7cc8cc(NC(=O)c9cnn%10cccnc9%10)c(OCC9CC9)cc8n7)CC6)C5)C4)c3C2=O)C(=O)N1` (stereo not drawn) [Example 419], in the experiment on IL6 [1] (Homo sapiens, PBMC, 24 h), the Dmax is 70 to 80% and the IC50 is below 10 nM. In the experiment with IL6 [2] (PBMC), the Dmax lay within 80 to 90% and the IC50 lay in the range of 10 to 50 nM. At IRAK-4, the DC50 was in the range of 1 to 5 nM, the Dmax was in the range of 70 to 80% and the “PBMC DC90” value is “A (A represents a DC90 value <10.0 nM)”.
